Reference: PubChem BioAssay AID254 (DTP/NCI, 2004)
Values joined by “and” are separate entries in the source; they are usually repeats but may differ in a detail not shown here. Identical values can stand only once. Inconclusive results and toxic doses are left out.

System: L1210 leukemia iv in BDF1 mice, survival T/C
Assay: NCI In Vivo Anticancer Drug Screen. Data for tumor model L1210 Leukemia (intravenous) in B6D2F1 (BDF1) mice
Settings: higher = longer survival
Experimental: The antitumor activity of compounds was measured in mice bearing transplantable tumors. Survival or tumor size were measured and the results are expressed as the measurement made in the treated group (T) divided by the measurement made in the vehicle treated control group (C). The tumor model used in this assay is L1210 Leukemia (intravenous) in B6D2F1 (BDF1) mice

[1] = endpoint: mean survival time, dose: 24.0 mg/kg/injection, schedule: Q01DX001 (ip), vehicle: other

SMILES: O=NN(CCF)C(=O)NC1CCS(=O)(=O)CC1
- T/C (endpoint: mean survival time, dose: 4.8 mg/kg/injection, schedule: Q01DX001 (oral), vehicle: other): 185 % of control and 225 % of control
- T/C (endpoint: mean survival time, dose: 6.0 mg/kg/injection, schedule: Q01DX001 (ip), vehicle: other): 190 % of control and 213 % of control
- T/C (endpoint: mean survival time, dose: 11.0 mg/kg/injection, schedule: Q01DX001 (oral), vehicle: other): 429 % of control and 504 % of control
- T/C (endpoint: mean survival time, dose: 12.0 mg/kg/injection, schedule: Q01DX001 (ip), vehicle: other): 365 % of control and 518 % of control
- T/C (endpoint: mean survival time, dose: 21.0 mg/kg/injection, schedule: Q01DX001 (oral), vehicle: other): 562 % of control and 817 % of control
- T/C [1]: 620 % of control and 688 % of control
- T/C (endpoint: mean survival time, dose: 40.0 mg/kg/injection, schedule: Q01DX001 (oral), vehicle: other): 436 % of control and 569 % of control
- T/C (endpoint: mean survival time, dose: 48.0 mg/kg/injection, schedule: Q01DX001 (ip), vehicle: other): 517 % of control and 590 % of control

SMILES: O=NN(CCCl)C(=O)NC1C2CC3CC(C2)CC1C3 (stereo not drawn)
- T/C (endpoint: mean survival time, dose: 22.0 mg/kg/injection, schedule: Q01DX001 (ip), vehicle: other): 107 % of control and 118 % of control
- T/C (endpoint: mean survival time, dose: 45.0 mg/kg/injection, schedule: Q01DX001 (ip), vehicle: other): 160 % of control
- T/C (endpoint: mean survival time, dose: 91.0 mg/kg/injection, schedule: Q01DX001 (ip), vehicle: other): 156 % of control
- T/C (endpoint: mean survival time, dose: 181.0 mg/kg/injection, schedule: Q01DX001 (ip), vehicle: other): 166 % of control and 229 % of control
- T/C (endpoint: mean survival time, dose: 362.0 mg/kg/injection, schedule: Q01DX001 (ip), vehicle: other): 440 % of control and 514 % of control

SMILES: CN(Cc1cnc2nc(N)nc(N)c2n1)c1ccc(C(=O)N[C@@H](CCC(=O)O)C(=O)O)cc1
- T/C (endpoint: mean survival time, dose: 0.3 mg/kg/injection, schedule: Q01DX008 (ip), vehicle: other): 110 % of control
- T/C (endpoint: mean survival time, dose: 0.3 mg/kg/injection, schedule: Q01HX008 (ip), vehicle: other): 121 % of control
- T/C (endpoint: mean survival time, dose: 0.3 mg/kg/injection, schedule: Q03HX008 (ip), vehicle: other): 118 % of control
- T/C (endpoint: mean survival time, dose: 0.3 mg/kg/injection, schedule: Q06HX008 (ip), vehicle: other): 116 % of control
- T/C (endpoint: mean survival time, dose: 0.3 mg/kg/injection, schedule: Q12HX008 (ip), vehicle: other): 115 % of control
- T/C (endpoint: mean survival time, dose: 0.4 mg/kg/injection, schedule: Q01DX008 (ip), vehicle: other): 121 % of control
- T/C (endpoint: mean survival time, dose: 0.4 mg/kg/injection, schedule: Q01HX008 (ip), vehicle: other): 119 % of control
- T/C (endpoint: mean survival time, dose: 0.4 mg/kg/injection, schedule: Q03HX008 (ip), vehicle: other): 119 % of control
- T/C (endpoint: mean survival time, dose: 0.4 mg/kg/injection, schedule: Q06HX008 (ip), vehicle: other): 122 % of control
- T/C (endpoint: mean survival time, dose: 0.4 mg/kg/injection, schedule: Q12HX008 (ip), vehicle: other): 115 % of control
- T/C (endpoint: mean survival time, dose: 2.4 mg/kg/injection, schedule: Q01DX001 (ip), vehicle: other): 122 % of control
- T/C (endpoint: mean survival time, dose: 3.2 mg/kg/injection, schedule: Q01DX001 (ip), vehicle: other): 119 % of control

SMILES: CCCCCCCCCCCCCCCC(=O)OCC1OC(n2ccc(N)nc2=O)C(O)C1O (stereo not drawn)
- T/C (endpoint: mean survival time, dose: 5.0 mg/kg/injection, schedule: Q01DX005 (ip), vehicle: other): 118 % of control and 122 % of control
- T/C (endpoint: mean survival time, dose: 10.0 mg/kg/injection, schedule: Q01DX005 (ip), vehicle: other): 172 % of control
- T/C (endpoint: mean survival time, dose: 15.0 mg/kg/injection, schedule: Q01DX005 (ip), vehicle: other): 177 % of control
- T/C (endpoint: mean survival time, dose: 18.0 mg/kg/injection, schedule: Q01DX004 (ip), vehicle: other): 165 % of control and 183 % of control
- T/C (endpoint: mean survival time, dose: 20.0 mg/kg/injection, schedule: Q01DX005 (ip), vehicle: other): 175 % of control and 176 % of control and 200 % of control
- T/C (endpoint: mean survival time, dose: 25.0 mg/kg/injection, schedule: Q01DX005 (ip), vehicle: other): 171 % of control and 211 % of control and 220 % of control
- T/C (endpoint: mean survival time, dose: 27.0 mg/kg/injection, schedule: Q01DX004 (ip), vehicle: other): 182 % of control and 234 % of control
- T/C (endpoint: mean survival time, dose: 27.0 mg/kg/injection, schedule: Q02DX004 (ip), vehicle: other): 178 % of control and 193 % of control
- T/C (endpoint: mean survival time, dose: 30.0 mg/kg/injection, schedule: Q01DX005 (ip), vehicle: other): 217 % of control and 249 % of control and 252 % of control
- T/C (endpoint: mean survival time, dose: 35.0 mg/kg/injection, schedule: Q01DX005 (ip), vehicle: other): 201 % of control and 267 % of control and 298 % of control
- T/C (endpoint: mean survival time, dose: 40.0 mg/kg/injection, schedule: Q01DX004 (ip), vehicle: other): 263 % of control and 291 % of control
- T/C (endpoint: mean survival time, dose: 40.0 mg/kg/injection, schedule: Q02DX004 (ip), vehicle: other): 213 % of control and 226 % of control
- T/C (endpoint: mean survival time, dose: 40.0 mg/kg/injection, schedule: Q03DX004 (ip), vehicle: other): 216 % of control and 246 % of control
- T/C (endpoint: mean survival time, dose: 60.0 mg/kg/injection, schedule: Q01DX004 (ip), vehicle: other): 249 % of control and 323 % of control
- T/C (endpoint: mean survival time, dose: 60.0 mg/kg/injection, schedule: Q02DX004 (ip), vehicle: other): 248 % of control and 280 % of control
- T/C (endpoint: mean survival time, dose: 60.0 mg/kg/injection, schedule: Q03DX004 (ip), vehicle: other): 242 % of control and 305 % of control
- T/C (endpoint: mean survival time, dose: 60.0 mg/kg/injection, schedule: Q04DX004 (ip), vehicle: other): 202 % of control and 260 % of control
- T/C (endpoint: mean survival time, dose: 90.0 mg/kg/injection, schedule: Q02DX004 (ip), vehicle: other): 277 % of control and 309 % of control
- T/C (endpoint: mean survival time, dose: 90.0 mg/kg/injection, schedule: Q03DX004 (ip), vehicle: other): 291 % of control and 328 % of control
- T/C (endpoint: mean survival time, dose: 90.0 mg/kg/injection, schedule: Q04DX004 (ip), vehicle: other): 340 % of control and 303 % of control
- T/C (endpoint: mean survival time, dose: 100.0 mg/kg/injection, schedule: Q01DX001 (ip), vehicle: saline with Tween-80): 200 % of control
- T/C (endpoint: mean survival time, dose: 135.0 mg/kg/injection, schedule: Q03DX004 (ip), vehicle: other): 175 % of control and 249 % of control
- T/C (endpoint: mean survival time, dose: 135.0 mg/kg/injection, schedule: Q04DX004 (ip), vehicle: other): 267 % of control and 327 % of control
- T/C (endpoint: mean survival time, dose: 150.0 mg/kg/injection, schedule: Q01DX001 (ip), vehicle: saline with Tween-80): 229 % of control
- T/C (endpoint: mean survival time, dose: 200.0 mg/kg/injection, schedule: Q04DX004 (ip), vehicle: other): 203 % of control and 244 % of control
- T/C (endpoint: median survival time, dose: 75.0 mg/kg/injection, schedule: Q04DX002 (ip), vehicle: saline with Tween-80): 318 % of control and 327 % of control
- T/C (endpoint: median survival time, dose: 100.0 mg/kg/injection, schedule: Q04DX002 (ip), vehicle: saline with Tween-80): 314 % of control and 315 % of control

SMILES: O=NN(CCCl)C(=O)N[C@H]1CCCC[C@H]1Cl
- T/C (endpoint: mean survival time, dose: 25.0 mg/kg/injection, schedule: Q01DX001 (ip), vehicle: carboxymethylcellulose (CMC)): 190 % of control and 262 % of control
- T/C (endpoint: mean survival time, dose: 51.0 mg/kg/injection, schedule: Q01DX001 (ip), vehicle: carboxymethylcellulose (CMC)): 427 % of control and 435 % of control
- T/C (endpoint: mean survival time, dose: 101.0 mg/kg/injection, schedule: Q01DX001 (ip), vehicle: carboxymethylcellulose (CMC)): 588 % of control and 767 % of control
- T/C (endpoint: mean survival time, dose: 203.0 mg/kg/injection, schedule: Q01DX001 (ip), vehicle: carboxymethylcellulose (CMC)): 111 % of control and 202 % of control

SMILES: Nc1nc(=S)c2[nH]cnc2[nH]1
- T/C (endpoint: mean survival time, dose: 0.4 mg/kg/injection, schedule: Q01DX008 (ip), vehicle: alkali diluted with saline): 107 % of control
- T/C (endpoint: mean survival time, dose: 0.4 mg/kg/injection, schedule: Q06HX008 (ip), vehicle: alkali diluted with saline): 117 % of control
- T/C (endpoint: mean survival time, dose: 0.4 mg/kg/injection, schedule: Q12HX008 (ip), vehicle: alkali diluted with saline): 114 % of control
- T/C (endpoint: mean survival time, dose: 0.6 mg/kg/injection, schedule: Q01DX008 (ip), vehicle: alkali diluted with saline): 114 % of control
- T/C (endpoint: mean survival time, dose: 0.6 mg/kg/injection, schedule: Q01HX008 (ip), vehicle: alkali diluted with saline): 152 % of control
- T/C (endpoint: mean survival time, dose: 4.8 mg/kg/injection, schedule: Q01DX001 (ip), vehicle: alkali diluted with saline): 156 % of control
- T/C (endpoint: mean survival time, dose: 115.0 mg/kg/injection, schedule: Q01DX001 (ip), vehicle: alkali diluted with saline): 195 % of control
- T/C (endpoint: median survival time, dose: 20.0 mg/kg/injection, schedule: Q04DX002 (ip), vehicle: alkali diluted with saline): 206 % of control and 227 % of control
- T/C (endpoint: median survival time, dose: 25.0 mg/kg/injection, schedule: Q04DX002 (ip), vehicle: alkali diluted with saline): 198 % of control and 231 % of control

SMILES: O=C1N[C@@H]([C@H]2CC[C@H](Cl)CN2)C(=O)N[C@H]1[C@H]1CC[C@H](Cl)CN1
- T/C (endpoint: mean survival time, dose: 4.4 mg/kg/injection, schedule: Q01DX001 (ip), vehicle: saline): 186 % of control
- T/C (endpoint: mean survival time, dose: 6.6 mg/kg/injection, schedule: Q01DX001 (ip), vehicle: saline): 202 % of control
- T/C (endpoint: mean survival time, dose: 10.0 mg/kg/injection, schedule: Q01DX001 (ip), vehicle: saline): 227 % of control
- T/C (endpoint: mean survival time, dose: 15.0 mg/kg/injection, schedule: Q01DX001 (ip), vehicle: saline): 163 % of control

SMILES: CC(=O)OC1CCC(NC(=O)N(CCF)N=O)CC1 (stereo not drawn)
- T/C (endpoint: mean survival time, dose: 16.0 mg/kg/injection, schedule: Q01DX001 (ip), vehicle: other): 175 % of control
- T/C [1]: 248 % of control
- T/C (endpoint: mean survival time, dose: 32.0 mg/kg/injection, schedule: Q01DX001 (oral), vehicle: other): 441 % of control
- T/C (endpoint: mean survival time, dose: 36.0 mg/kg/injection, schedule: Q01DX001 (ip), vehicle: other): 473 % of control
